Results reported in PubChem BioAssay AID296 (DTP/NCI, 2004).
Where “and” joins values, the source holds several entries; their conditions need not be identical. Equal values may be shown once. Results filed as inconclusive are left out.

Test system: MX-1 breast xenograft, nude mice, tumor weight T/C
Experiment: NCI In Vivo Anticancer Drug Screen. Data for tumor model Human Mammary Carcinoma MX-1 Xenograft (intrarenal inoculation) in NU/NU Swiss (nude) mice
Details: endpoint: mean tumor weight change, higher = larger tumour
In short: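 Tumor-bearing mice were treated with test compound alongside a vehicle-treated control group. Survival or tumor size was measured, and activity is expressed as the treated-group value divided by the control-group value.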

[1] = dose: 300.0 mg/kg/injection, schedule: Q04DX003 (sc), vehicle: saline with Tween-80
[2] = dose: 600.0 mg/kg/injection, schedule: Q04DX003 (sc), vehicle: saline with Tween-80
[3] = dose: 1200.0 mg/kg/injection, schedule: Q04DX003 (sc), vehicle: saline with Tween-80
[4] = dose: 100.0 mg/kg/injection, schedule: Q04DX003 (sc), vehicle: saline with Tween-80
[5] = dose: 200.0 mg/kg/injection, schedule: Q04DX003 (sc), vehicle: saline with Tween-80
[6] = dose: 50.0 mg/kg/injection, schedule: Q01DX010 (sc), vehicle: saline
[7] = dose: 100.0 mg/kg/injection, schedule: Q01DX010 (sc), vehicle: saline
[8] = dose: 75.0 mg/kg/injection, schedule: Q04DX003 (sc), vehicle: Klucel (hydroxypropylcellulose) (HPC)
[9] = dose: 150.0 mg/kg/injection, schedule: Q04DX003 (sc), vehicle: Klucel (hydroxypropylcellulose) (HPC)
[10] = dose: 150.0 mg/kg/injection, schedule: Q04DX003 (sc), vehicle: saline with Tween-80
[11] = dose: 100.0 mg/kg/injection, schedule: Q01DX010 (sc), vehicle: saline with Tween-80
[12] = dose: 200.0 mg/kg/injection, schedule: Q01DX010 (sc), vehicle: saline with Tween-80
[13] = dose: 300.0 mg/kg/injection, schedule: Q04DX003 (sc), vehicle: Klucel (hydroxypropylcellulose) (HPC)
[14] = dose: 600.0 mg/kg/injection, schedule: Q04DX003 (sc), vehicle: Klucel (hydroxypropylcellulose) (HPC)
[15] = dose: 1200.0 mg/kg/injection, schedule: Q04DX003 (sc), vehicle: Klucel (hydroxypropylcellulose) (HPC)

SMILES: COc1cccc2c1C(=O)c1c(O)c3c(c(O)c1C2=O)C[C@@](O)(C(=O)CO)C[C@@H]3OC1CC(N)CC(C)O1 (stereo not given in full)
- T/C (dose: 0.19 mg/kg/injection, schedule: Q01DX010 (sc), vehicle: water): 43 % of control
- T/C (dose: 0.37 mg/kg/injection, schedule: Q01DX010 (sc), vehicle: water): 51 % of control
- T/C (dose: 0.75 mg/kg/injection, schedule: Q01DX010 (sc), vehicle: water): 61 % of control
- T/C (dose: 1.5 mg/kg/injection, schedule: Q01DX010 (sc), vehicle: water): 59 % of control

SMILES: CCCN1COC(OCC)C(C)(C)C1 (stereo not given)
- T/C [1]: 98 % of control
- T/C [2]: 94 % of control
- T/C [3]: 73 % of control

SMILES: CC(=O)N(C)c1ccc(Nc2cc(C)[nH]c3ccc4ncnc4c23)cc1
- T/C (dose: 50.0 mg/kg/injection, schedule: Q04DX003 (sc), vehicle: saline with Tween-80): 102 % of control
- T/C [4]: 84 % of control
- T/C [5]: 69 % of control

SMILES: O=C(O)CC(NC(=O)CP(=O)(O)O)C(=O)O (stereo not given)
- T/C [6]: 117 % of control
- T/C [7]: 25 % of control and 34 % of control

SMILES: O=CNCO
- T/C (dose: 300.0 mg/kg/injection, schedule: Q01DX010 (sc), vehicle: water): 111 % of control
- T/C (dose: 600.0 mg/kg/injection, schedule: Q01DX010 (sc), vehicle: water): 62 % of control
- T/C (dose: 1200.0 mg/kg/injection, schedule: Q01DX010 (sc), vehicle: water): 37 % of control
- T/C (dose: 2000.0 mg/kg/injection, schedule: Q01DX010 (sc), vehicle: water): 5 % of control

SMILES: C=C(Cl)C(=NC(C)(C)C)Nc1ccccc1C
- T/C [8]: 96 % of control

SMILES: COc1ccc2[nH]c3c(c2c1)CCNC3CC(C)CCC=C(C)C (stereo not given)
- T/C [8]: 114 % of control
- T/C [9]: 119 % of control

SMILES: CCCCCCCCSC1=C(Cl)C(=O)C(OC)=C(OC)C1=O
- T/C (dose: 36.0 mg/kg/injection, schedule: Q04DX003 (sc), vehicle: saline with Tween-80): 113 % of control
- T/C (dose: 72.0 mg/kg/injection, schedule: Q04DX003 (sc), vehicle: saline with Tween-80): 109 % of control
- T/C (dose: 144.0 mg/kg/injection, schedule: Q04DX003 (sc), vehicle: saline with Tween-80): 90 % of control

SMILES: CN(C)P(=O)(Oc1ccccc1)N(C)C
- T/C [10]: 97 % of control
- T/C [1]: 107 % of control
- T/C [2]: 113 % of control
- T/C [3]: 71 % of control

SMILES: N#Cc1nc(C#N)c(Sc2ccccc2)c(Sc2ccccc2)c1Sc1ccccc1
- T/C (dose: 25.0 mg/kg/injection, schedule: Q01DX010 (sc), vehicle: saline with Tween-80): 57 % of control
- T/C [11]: 24 % of control
- T/C [12]: 80 % of control

SMILES: CC12CC(C(=O)O)C3(O)CC(C)(C1)CC(C)(C2)C3 (stereo not given) (tested in a mixture with another compound)
- T/C [13]: 87 % of control
- T/C [14]: 168 % of control
- T/C [15]: 102 % of control

SMILES: CC(=O)NC(C=O)OCC=O (stereo not given)
- T/C (dose: 100.0 mg/kg/injection, schedule: Q04DX003 (sc), vehicle: water): 108 % of control
- T/C (dose: 200.0 mg/kg/injection, schedule: Q04DX003 (sc), vehicle: water): 72 % of control
- T/C (dose: 400.0 mg/kg/injection, schedule: Q04DX003 (sc), vehicle: water): 91 % of control

SMILES: COC1CC(C)C(OC)C2=CC(=O)C=C(NC(=O)/C(C)=C/C=C\C(C)C(OC(N)=O)/C(C)=C\C(C)C1OC)C2=O (stereo not given)
- T/C (dose: 12.5 mg/kg/injection, schedule: Q04DX003 (sc), vehicle: saline + alcohol): 81 % of control
- T/C (dose: 25.0 mg/kg/injection, schedule: Q04DX003 (sc), vehicle: saline + alcohol): 97 % of control

SMILES: CSCS(=O)C[C@H](CO)NC(=O)/C=C/c1c(C)[nH]c(=O)[nH]c1=O (stereo not given in full)
- T/C (dose: 0.38 mg/kg/injection, schedule: Q04DX003 (sc), vehicle: saline): 106 % of control
- T/C (dose: 0.75 mg/kg/injection, schedule: Q04DX003 (sc), vehicle: saline): 97 % of control

SMILES: Cc1ccc2c(c1)N=C(Nc1ccccc1)N=S2(C)=O (stereo not given)
- T/C [4]: 79 % of control
- T/C [5]: 78 % of control
- T/C (dose: 400.0 mg/kg/injection, schedule: Q04DX003 (sc), vehicle: saline with Tween-80): 75 % of control
- T/C (dose: 800.0 mg/kg/injection, schedule: Q04DX003 (sc), vehicle: saline with Tween-80): 60 % of control

SMILES: NC1(C(=O)O)CCCC1
- T/C (dose: 12.5 mg/kg/injection, schedule: Q01DX010 (sc), vehicle: saline): 103 % of control
- T/C [6]: 25 % of control and 41 % of control
- T/C [7]: 7 % of control and 8 % of control

SMILES: CCCCCCCCCCCCCCCCCC(=O)Nc1ccn(C2OC(CO)C(O)C2O)c(=O)n1 (stereo not given)
- T/C [2]: 11 % of control and 15 % of control and 24 % of control
- T/C [3]: 3 % of control and 8 % of control

SMILES: O=[n+]1c2ccccc2n([O-])c2ccccc21.[Cl][Ni][Cl]
- T/C (dose: 75.0 mg/kg/injection, schedule: Q04DX003 (sc), vehicle: saline with Tween-80): 90 % of control
- T/C [10]: 53 % of control

SMILES: Nc1nc2c(ncn2C2OC(CO)C(O)C2O)c(=O)[nH]1.Nc1nc2c(ncn2C2OC(CO)C(O)C2O)c(=O)[nH]1.[NH2-].[NH2-].[Pt+2] (stereo not given)
- T/C (dose: 300.0 mg/kg/injection, schedule: Q04DX003 (sc), vehicle: water): 68 % of control
- T/C (dose: 600.0 mg/kg/injection, schedule: Q04DX003 (sc), vehicle: water): 22 % of control
- T/C (dose: 1200.0 mg/kg/injection, schedule: Q04DX003 (sc), vehicle: water): 3 % of control

SMILES: C/C=C(\C)C(=O)OC1C(C)=C2C(C1OC(=O)CCCCC)C(C)(OC(C)=O)CC(OC(=O)CCC)C1(O)C2OC(=O)C1(C)O (stereo not given)
- T/C (dose: 2.0 mg/kg/injection, schedule: Q04DX003 (ip), vehicle: Klucel (hydroxypropylcellulose) (HPC)): 52 % of control

SMILES: CCCCn1cnc2c(=S)nc[nH]c21
- T/C (dose: 300.0 mg/kg/injection, schedule: Q04DX003 (sc), vehicle: suspension in saline): 119 % of control
- T/C (dose: 600.0 mg/kg/injection, schedule: Q04DX003 (sc), vehicle: suspension in saline): 81 % of control
- T/C (dose: 1024.0 mg/kg/injection, schedule: Q04DX003 (sc), vehicle: suspension in saline): 67 % of control
- T/C (dose: 1200.0 mg/kg/injection, schedule: Q04DX003 (sc), vehicle: suspension in saline): 16 % of control
- T/C (dose: 1600.0 mg/kg/injection, schedule: Q04DX003 (sc), vehicle: suspension in saline): 49 % of control
- T/C (dose: 2000.0 mg/kg/injection, schedule: Q04DX003 (sc), vehicle: suspension in saline): 4 % of control

SMILES: O=C(O)CP(=O)(O)O
- T/C (dose: 300.0 mg/kg/injection, schedule: Q04DX003 (sc), vehicle: saline): 87 % of control
- T/C (dose: 600.0 mg/kg/injection, schedule: Q04DX003 (sc), vehicle: saline): 89 % of control
- T/C (dose: 1200.0 mg/kg/injection, schedule: Q04DX003 (sc), vehicle: saline): 83 % of control
- T/C (dose: 2400.0 mg/kg/injection, schedule: Q04DX003 (sc), vehicle: saline): 59 % of control

SMILES: C[C@]12C=CC(=O)C=C1CC[C@@H]1[C@@H]2[C@@H](O)C[C@@]2(C)[C@H]1CC[C@]2(O)C(=O)CO
- T/C (dose: 12.5 mg/kg/injection, schedule: Q01DX010 (sc), vehicle: Klucel (hydroxypropylcellulose) (HPC)): 50 % of control
- T/C (dose: 25.0 mg/kg/injection, schedule: Q01DX010 (sc), vehicle: Klucel (hydroxypropylcellulose) (HPC)): 67 % of control
- T/C (dose: 50.0 mg/kg/injection, schedule: Q01DX010 (sc), vehicle: Klucel (hydroxypropylcellulose) (HPC)): 55 % of control
- T/C (dose: 100.0 mg/kg/injection, schedule: Q01DX010 (sc), vehicle: Klucel (hydroxypropylcellulose) (HPC)): 24 % of control

SMILES: CN(C)c1ccc2c(SCC(=O)OCC(=O)[C@@]3(O)CC[C@H]4[C@@H]5CCC6=CC(=O)C=C[C@]6(C)[C@H]5C(=O)C[C@@]43C)c3ccc(N(C)C)cc3nc2c1
- T/C [8]: 53 % of control
- T/C [9]: 92 % of control
- T/C [13]: 39 % of control
- T/C [14]: 55 % of control

SMILES: COc1cc(C[C@H]2c3cc(OC)c(OC)cc3CCN2C)c(Oc2cc3c(cc2OC)-c2c(OC)c(OC)cc4c2[C@H](C3)N(C)CC4)cc1OC
- T/C [11]: 95 % of control
- T/C [12]: 67 % of control
- T/C (dose: 400.0 mg/kg/injection, schedule: Q01DX010 (sc), vehicle: saline with Tween-80): 75 % of control
- T/C (dose: 800.0 mg/kg/injection, schedule: Q01DX010 (sc), vehicle: saline with Tween-80): 71 % of control

SMILES: COC1C(O)C(C)OC(OC2C(Oc3cccc4c(O)c5c(=O)oc6ccc(C)c7c(=O)oc(c34)c5c67)OC(C)C(O)C2O)C1O (stereo not given)
- T/C [13]: 90 % of control
- T/C [14]: 94 % of control
- T/C [15]: 70 % of control
- T/C (dose: 2400.0 mg/kg/injection, schedule: Q04DX003 (sc), vehicle: Klucel (hydroxypropylcellulose) (HPC)): 49 % of control
